Test results as given in US9242991B2, “Substituted fused heterocycles as c-Met tyrosine kinase inhibitors” (BETTA PHARMACEUTICALS CO., LTD, priority 2010, dated 2016).
pIC50: −log10 of the molar value. Several values for one entry are separate records, joined by “and”; a condition that tells them apart may be missing. Equal values may be shown once.

Tests used:
[1] = biological target: T1, c-Met phosphorylation (pY1349) in NCI-H460 cells (Homo sapiens, UniProt P08581); experiment: HGF Stimulated Met (pY1349) NCI-H460 Cell-based ELISA; settings: for Mean (Counts − Blanks) / Mean of Activity (% Control) / Activity (% Control) / Counts: 0.2 μM compound; for Mean of Activity (% Control): mean of replicates; for Activity (% Control) / Counts: single replicates
T1 construct: host or cells: NCI-H460
T1 sequence (P08581 25-1390): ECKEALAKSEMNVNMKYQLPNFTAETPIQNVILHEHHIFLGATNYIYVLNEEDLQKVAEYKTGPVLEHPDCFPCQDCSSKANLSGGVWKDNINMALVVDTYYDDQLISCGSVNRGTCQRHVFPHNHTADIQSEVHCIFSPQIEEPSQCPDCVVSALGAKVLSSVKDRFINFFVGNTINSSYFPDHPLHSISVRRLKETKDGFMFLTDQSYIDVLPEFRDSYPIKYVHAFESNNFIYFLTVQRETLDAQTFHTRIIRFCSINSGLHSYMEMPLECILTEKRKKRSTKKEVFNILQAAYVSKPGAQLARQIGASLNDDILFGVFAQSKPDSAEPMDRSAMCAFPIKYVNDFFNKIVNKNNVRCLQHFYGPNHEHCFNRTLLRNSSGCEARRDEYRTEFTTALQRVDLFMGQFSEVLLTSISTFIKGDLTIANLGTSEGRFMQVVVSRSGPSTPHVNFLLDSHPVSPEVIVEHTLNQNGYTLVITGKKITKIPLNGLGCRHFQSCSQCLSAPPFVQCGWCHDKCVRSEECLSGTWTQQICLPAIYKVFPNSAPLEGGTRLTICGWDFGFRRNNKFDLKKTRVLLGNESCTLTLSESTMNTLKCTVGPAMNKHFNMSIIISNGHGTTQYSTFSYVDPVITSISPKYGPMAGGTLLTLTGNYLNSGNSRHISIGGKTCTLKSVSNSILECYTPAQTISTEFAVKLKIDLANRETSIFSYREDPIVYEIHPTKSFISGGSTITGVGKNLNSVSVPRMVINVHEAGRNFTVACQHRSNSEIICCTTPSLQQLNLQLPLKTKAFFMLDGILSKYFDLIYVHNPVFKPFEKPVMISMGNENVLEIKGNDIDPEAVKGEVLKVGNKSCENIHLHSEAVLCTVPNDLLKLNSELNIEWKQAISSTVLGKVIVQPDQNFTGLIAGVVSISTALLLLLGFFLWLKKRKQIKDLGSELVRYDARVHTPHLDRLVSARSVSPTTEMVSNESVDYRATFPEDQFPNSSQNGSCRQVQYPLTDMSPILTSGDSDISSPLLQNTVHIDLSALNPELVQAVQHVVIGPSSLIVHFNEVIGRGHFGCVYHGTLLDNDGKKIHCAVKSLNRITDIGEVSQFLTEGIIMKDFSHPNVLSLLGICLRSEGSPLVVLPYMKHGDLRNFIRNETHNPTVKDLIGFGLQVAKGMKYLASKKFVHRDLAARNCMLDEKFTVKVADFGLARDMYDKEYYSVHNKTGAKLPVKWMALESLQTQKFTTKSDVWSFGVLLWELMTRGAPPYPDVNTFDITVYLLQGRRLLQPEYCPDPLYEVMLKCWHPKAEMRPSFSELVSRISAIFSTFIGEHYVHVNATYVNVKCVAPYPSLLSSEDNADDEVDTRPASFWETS
Protocol: HGF Stimulated Met (pY1349) NCI-H460 Cell-based ELISA NCI-H460 cells (purchased from ATCC) are cultured in RPMI 1640 media (Invitrogen) supplemented with 10% Fetal Bovine Scrum (FBS) and plated (prior to becoming 70% confluent) in 96-well flat-bottom plates at a density of 20,000 cells per well in 80 μL volume. The cells are then incubated overnight in a cell culture incubator (5% CO2, 95% Relative Humidity (RH) and 37° C.) and allowed to attach to the plate. The following morning the cells are washed with 2 volumes of a Reduced Serum Media (RSM) (RPMI 1640 media supplemented with 0.5% FBS). After removal of the last wash, 80 µL of RSM is added to each well of the cell plates. The cell plates are incubated for 2.5 hours in a cell culture incubator, and then dosed with compounds. Compound inhibitors are first solubilized at 10 mM in 100% DMSO and then diluted to 100 μM with 2% DMSO RSM. Subsequently compound serial dilutions (1:3) are prepared over a 100 μM to 0.005 μM range. Cells are dosed with the addition of 20 μL of compound stock to produce a final DMSO concentration of 0.4% and a final compound concentration dose range between 20 and 0.001 μM. After dosing with compounds the cells plates are gently agitated to mix and then allowed to incubate for 30 min in a cell culture incubator. After dose completion, the cells are stimulated with the addition of 20 μL per well of Hepatocyte Growth Factor (HGF) at a final concentration of 100 ng/mL in RSM (all wells except MIN wells are stimulated, MIN wells are dosed with 20 μL RSM). After 10 min incubation in a cell culture incubator, the liquid is removed from the cell plate wells, and the cells are lysed by the addition of 50 μL of ice-cold Meso Scale Discovery® (MSD, Gaithersburg, Md.) IX Lysis Buffer (150 mM NaCl, 20 mM Tris, pH7.5, 1 mM EDTA, 1 mM ethylene glycol tetraacetic acid, and 1% TRITON® X-100) supplemented with Phosphatase I and II and Protease inhibitors (Sigma, St. Louis, Mo.). After lysis at RT for 30 min the lysates are transferred to and captured on a MSD® Multi-Spot 96-well. 4-spot PhosphoMet plate that is BSA-blocked (at 30 mg/mL Block A in IX Tris Wash Buffer) and then washed one time with Tris Wash Buffer. After 2 hours capture (at RT) the lysates are removed from the MSD® plate and the plate is washed with IX Tris Wash Buffer. After blotting, 25 μL of 5 nM Sulfo-Tag Anti-Total Met antibody (detection antibody, MSD® prepared in IX Tris Wash Buffer supplemented with 10 mg/mL BSA and 0.1% Blocker D-R (MSD®)) is added to the wells of the MSD® plate. After 1 hour capture (at RT) the MSD® plate wells are washed with IX Tris Wash Buffer, and then 150 μL of IX Read Buffer T (with surfactant, MSD®) is added. Immediately after the addition of the Read Buffer, the plates are analyzed with a SECTOR 6000 MSD® Imager plate reader. Relative IC50 values are determined using MSD activity units by calculating percent inhibition with respect to on-plate “MIN” and “MAX” controls and then fitting the percent inhibition values and ten-point dose response data to a four-parameter logistic equation. This assay has a Minimum Significant Ratio (MSR) of 2.06.

[2] = biological target: T2, c-Met phosphorylation in SI 14 tumors (human c-Met) (Homo sapiens, UniProt P08581); experiment: c-Met In Vivo Target Inhibition Assay (SI 14 tumors in nude mice, phosphor-Met ELISA); settings: oral gavage, read-out: ED50 (dose that produces 50% inhibition in tumor)
T2 construct: host or cells: SI 14 (S114) cells as subcutaneous tumours in athymic nude mice
T2 sequence (P08581 25-1390): as above
Protocol: SI 14 cells (licensed from PHS, over-express both human HGF and human c-Met) are cultured in a growth media (Dulbecco's Modified Eagle Medium) supplemented with 10% fetal calf serum and expanded. Cells are harvested and washed twice with phosphate buffered saline and 2×10^6 cells are mixed with equal volume of BD Matrigel™ matrix (BD Bioscience, Franklin, N.J.), and injected subcutaneous Iy into the flank of nude mice (athymic nude, from Harlan, Indianapolis, Ind.). At day 8 after implant, compounds (formulated in 10% acacia or 1% carboxymethylcellulose/0.5% sodium lauryl sulfate/0.05% antifoam as suspension) are administered to animals by oral gavage at 50 mg/kg. Animals are sacrificed at 2 hours post dose, and tumors are harvested and stored frozen until needed.
Frozen tumors are pulverized using motar-pastel. The pulverized tissues are transferred to a tube containing Lysing Matrix D beads (MP Biomedicals, Solon, Ohio) and 600 μL lysis buffer (RIPA buffer, containing 50 mM Tris-HCl, pH7.4, 150 mM NaCl, 1% NP-40, 0.5% sodium deoxycholate, 0.1% SDS, from Boston Bioproducts). A FastPrep® Cell Disrupter (MP Biomedicals) is used to disrupt the tissue and lyse the cells. […] Protein concentration is determined by Bradford method. Tumor lysates are loaded onto MSD® phosphor-Met ELISA plates and phosphor-c-Met level is determined using the same protocol as H460 cell-based ELISA. […]

U87MG tumors = experiment: Xenograft tumor model, U87MG; assay type: in vivo, human; settings: BID×35, athymic nude mice
Protocol: (§1) Human glioblastoma cells U87MG, human gastric cancer cells MKN45, human non small cell lung cancer cells H441, and human renal carcinoma cells Caki-1 are expanded in culture, harvested, and injected subcutaneous Iy onto the rear flank of athymic nude mice. Testing compound is prepared in an appropriate vehicle and is administered by oral gavage when tumors are established (7-21 days after implant). Tumor response is determined by tumor volume measurement performed twice a week during the course of treatment. Tumor volume inhibition (% growth inhibition) is calculated by comparing treated groups to a vehicle control group. Body weight is taken as a general measurement of toxicity. […] At 60 mg/kg dose (PO, BID×35), 82% growth inhibition is achieved. At 120 mg/kg dose (PO, BID×35), 92% growth inhibition reaches.

[3] = test system: U87MG, MKN45, H441 and Caki-1 tumors; experiment: Xenograft Tumor Models (U87MG, MKN45, H441, Caki-1); assay type: in vivo, human; settings: oral gavage, athymic nude mice
Protocol: as §1

Structure (SMILES) | Mean (Counts − Blanks) [1] | Mean of Activity (% Control) [1] | Activity (% Control) [1] | Counts [1] | pIC50 ([1]; NCI-H460 cells, HGF 100 ng/mL, Example 1 value is average of n=6, read-out: IC50 (inhibition of c-Met phosphorylation in cells)) | ED50 [2] | melting point | Activity (% Control) ([1]; 0.2 µM) | growth inhibition of U87MG tumors (U87MG tumors; 30 mg/kg PO) | growth inhibition of U87MG tumors (U87MG tumors; 60 mg/kg PO) | growth inhibition of U87MG tumors (U87MG tumors; 120 mg/kg PO) | anti-tumor activity in xenograft models [3]
O=C(Nc1ccc(Oc2ncnc3cc4c(cc23)OCCOCCOCCO4)c(F)c1)c1c[nH]cc(-c2ccc(F)cc2)c1=O [Example 1, 5-(4-Fluoro-phenyl)-4-oxo-1,4-dihydro-pyridine-3-carboxylic acid [3-fluoro-4-(7,8,10,11,13,14-hexahydro-6,9,12,15-tetraoxa-1,3-diaza-cyclododeca[b]naphthalen-4-yloxy)-phenyl]-amide] | 50 | 0 % Control | 0 % Control | 1008 and 895 | 7.45 | 2.9 mg/kg | 188 to 190 °C |  | 59% | 82% | 92% | excellent dose dependent anti-tumor activity
Cn1c(Nc2ccc(F)cc2)ncc(-c2ccc(Oc3ncnc4cc5c(cc34)OC(F)(F)O5)cn2)c1=O [Example 8, 5-[5-(2,2-Difluoro-[1,3]dioxolo[4,5-g]quinazolin-8-yloxy)-pyridin-2-yl]-2-(4-fluoro-phenylamino)-3-methyl-3H-pyrimidin-4-one] | 28728 | 24 % Control |  | 30429 and 28830 |  |  |  | 27 % Control and 20 % Control |  |  |  | 
O=C(Nc1ccc(Oc2ncnc3cc4c(cc23)OCO4)c(F)c1)c1c[nH]cc(-c2ccc(F)cc2)c1=O [Example 9, 5-(4-Fluoro-phenyl)-4-oxo-1,4-dihydro-pyridine-3-carboxylic acid [4-([1,3]dioxolo[4,5-g]quinazolin-8-yloxy)-3-fluoro-phenyl]-amide] | 27649 | 19 % Control |  | 28364 and 28738 |  |  |  | 18 % Control and 20 % Control |  |  |  | 
O=C(Nc1ccc(Oc2ccnc3cc4c(cc23)OCCOCCOCCO4)c(F)c1)c1c[nH]cc(-c2ccc(F)cc2)c1=O [Example 10, 5-(4-Fluoro-phenyl)-4-oxo-1,4-dihydro-pyridine-3-carboxylic acid [3-fluoro-4-(7,8,10,11,13,14-hexahydro-6,9,12,15-tetraoxa-1-aza-cyclododeca[b]naphthalen-4-yloxy)-phenyl]-amide] | 28866 | 25 % Control |  | 30524 and 29012 |  |  | 188 to 190 °C | 28 % Control and 21 % Control |  |  |  | 
O=C(Nc1ccc(Oc2ccnc3cc4c(cc23)OCCOCCOCCO4)c(F)c1)c1cccn(-c2ccc(F)cc2)c1=O [Example 11, 1-(4-Fluoro-phenyl)-2-oxo-1,2-dihydro-pyridine-3-carboxylic acid [3-fluoro-4-(7,8,10,11,13,14-hexahydro-6,9,12,15-tetraoxa-1-aza-cyclododeca[b]naphthalen-4-yloxy)-phenyl]-amide] | 31407 | 35 % Control |  | 32582 and 32035 |  |  |  | 36 % Control and 34 % Control |  |  |  | 
Cn1c(Nc2ccccc2)ncc(-c2ccc(Oc3ccnc4cc5c(cc34)OC(F)(F)O5)cn2)c1=O [Example 28, 5-[5-(2,2-Difluoro-[1,3]dioxolo[4,5-g]quinolin-8-yloxy)-pyridin-2-yl]-2-(phenylamino)-3-methyl-3H-pyrimidin-4-one] | 30 | 1 % Control |  | 1070 and 793 |  |  |  | 1 % Control and 0 % Control |  |  |  | 
Cn1c(Nc2ccccc2)ncc(-c2ccc(Oc3ccnc4cc5c(cc34)OCCOCCOCCOCCOCCO5)cn2)c1=O [Example 31, 5-[5-(2,5,8,11,14,17-Hexaoxa-21-aza-tricyclo[16.8.0.020,25]hexacosa-1(18), 19,21,23,25-pentaen-24-yloxy)-pyridin-2-yl]-3-methyl-2-phenylamino-3 H-pyrimidin-4-one] | 17936 | 37 % Control |  | 20248 and 17427 |  |  |  | 43 % Control and 31 % Control |  |  |  | 

Further lines, with some results ahead:

Mean (Counts − Blanks) [1] | Mean of Activity (% Control) [1] | Activity (% Control) [1] | Counts [1] | pIC50 ([1]; NCI-H460 cells, HGF 100 ng/mL, Example 1 value is average of n=6, read-out: IC50 (inhibition of c-Met phosphorylation in cells)) | ED50 [2] | melting point | Activity (% Control) ([1]; 0.2 µM) | Structure (SMILES) | growth inhibition of U87MG tumors (U87MG tumors; 30 mg/kg PO) | growth inhibition of U87MG tumors (U87MG tumors; 60 mg/kg PO) | growth inhibition of U87MG tumors (U87MG tumors; 120 mg/kg PO) | anti-tumor activity in xenograft models [3]
29068 | 25 % Control |  | 30847 and 29093 |  |  |  | 29 % Control and 21 % Control | Cn1c(Nc2ccc(F)cc2)ncc(-c2ccc(Oc3ncnc4cc5c(cc34)OCCOCCOCCO5)cn2)c1=O [Example 6, 2-(4-Fluoro-phenylamino)-5-[5-(7,8,10,11,13,14-hexahydro-6,9,12,15-tetraoxa-1,3-diaza-cyclododeca[b]naphthalen-4-yloxy)-pyridin-2-yl]-3-methyl-3H-pyrimidin-4-one] |  |  |  | 
32073 | 39 % Control |  | 34234 and 31716 |  |  |  | 44 % Control and 33 % Control | Cn1c(Nc2ccc(F)cc2)ncc(-c2ccc(Oc3ncnc4cc5c(cc34)OCCCO5)cn2)c1=O [Example 20, 5-[5-(8,9-Dihydro-7H-6,10-dioxa-1,3-diaza-cyclohepta[b]naphthalen-4-yloxy)-pyridin-2-yl]-2-(4-fluoro-phenylamino)-3-methyl-3H-pyrimidin-4-one] |  |  |  | 
29384 | 27 % Control |  | 31741 and 28830 |  |  |  | 33 % Control and 20 % Control | CN1CCOc2cc3ncnc(Oc4ccc(-c5cnc(Nc6ccc(F)cc6)n(C)c5=O)nc4)c3cc2OCC1 [Example 21, 2-(4-Fluoro-phenylamino)-3-methyl-5-[5-(9-methyl-8,9,10,11-tetrahydro-7H-6,12-dioxa-1,3,9-triaza-cyclonona[b]naphthalen-4-yloxy)-pyridin-2-yl]-3H-pyrimidin-4-one] |  |  |  | 
